Measured values: US9309222B2, “Phenyl linked quinolinyl modulators of RORγt” (Janssen Pharmaceutica NV, priority 2012, dated 2016)
Counter-ions that a name gives are not always drawn.

Assays:
[1] = target: T1, human RORγt ligand binding domain (RORγt LBD) (Homo sapiens, UniProt P51449); assay: RORγt ThermoFluor assay (thermal shift, ligand binding affinity); settings: estimated from concentration response of thermal shift
T1 construct: His-tag (N); TurboTEV protease cleavage site (ENLYFQG) (N); made in house; host or cells: E. coli (pHIS1, modified pET vector)
T1 sequence (P51449 with tags, fused parts or gaps): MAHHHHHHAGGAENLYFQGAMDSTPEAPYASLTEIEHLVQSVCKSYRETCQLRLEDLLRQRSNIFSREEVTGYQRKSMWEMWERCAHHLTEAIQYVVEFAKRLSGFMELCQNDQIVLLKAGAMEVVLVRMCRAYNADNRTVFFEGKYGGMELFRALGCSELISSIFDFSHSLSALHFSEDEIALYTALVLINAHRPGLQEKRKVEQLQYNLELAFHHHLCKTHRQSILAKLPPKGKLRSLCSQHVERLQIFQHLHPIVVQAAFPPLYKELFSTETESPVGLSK
Procedure, shortened: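 Thermal shift of 0.065 mg/mL RORγt with 60 μM 1,8-ANS in 100 mM Hepes pH 7.0, 10 mM NaCl, 2.5 mM GSH, 0.002% Tween-20. Compounds in 1:2 series from 10 mM DMSO stock. Dye fluorescence (500 nm emission) tracked versus temperature; ΔTm used to derive KD.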

human RORγt LBD = target: T2, human RORγt LBD (Homo sapiens, UniProt P51449); assay: RORγt reporter assay (GAL4-RORγt LBD luciferase in HEK293T cells); format: cell-based; settings: for IC50: 24 hours compound treatment; for inhibition at 6 µM: HEK-293T, read-out: RORγt reporter Assay, % inhibition @ 6 μM, HEK293T cells, 6 μM compound
T2 construct: expressed in transfected cells
T2 sequence (P51449 258-518): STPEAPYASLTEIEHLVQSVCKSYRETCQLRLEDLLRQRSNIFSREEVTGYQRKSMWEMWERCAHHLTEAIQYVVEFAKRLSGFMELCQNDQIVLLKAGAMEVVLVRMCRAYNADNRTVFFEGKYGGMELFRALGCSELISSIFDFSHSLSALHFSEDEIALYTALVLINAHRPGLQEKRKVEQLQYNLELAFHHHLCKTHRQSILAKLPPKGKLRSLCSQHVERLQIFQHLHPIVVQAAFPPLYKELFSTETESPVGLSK
Procedure, shortened: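 Read-out is the firefly-to-renilla luciferase ratio versus compound concentration, after 24 h compound exposure of cells in phenol-red-free DMEM/5% lipid-reduced FCS. Cells were HEK293T bulk-transfected with a GAL4-responsive firefly reporter (pGL4.31) and GAL4 DBD–wild-type human RORγt LBD fusion (pBIND, renilla as transfection/viability control).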

[2] = test system: IL-17 production by CD4 T cells; assay: Human Th17 assay (IL-17 production by CD4 T cells under Th17 differentiation conditions); format: cell-based; settings: IL-17 in supernatant after 3 days
Procedure, shortened: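 Primary CD4+ T cells from healthy-donor PBMC, preincubated 1 h with titrated compound (0.2% DMSO), then activated with anti-CD3/CD28 beads plus anti-IL4, anti-IFNγ, IL1β, IL23, IL6, TGFβ and IL2.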

| SMILES | Kd [1] | IC50 (human RORγt LBD; HEK293T cells) | inhibition at 6 µM (human RORγt LBD) | IC50 ([2]; Homo sapiens, CD4+ T, 72 h) | RORγt reporter Assay, % inhibition @ 6 μM (human RORγt LBD; HEK293T cells, 6 μM compound) | IC50 [2] |
| --- | --- | --- | --- | --- | --- | --- |
| Cc1cc(C(O)(c2cc(C)c3nc(Cl)c(-c4ccccc4)c(Cl)c3c2)c2cncn2C)ccn1 (centres unmarked) [Example 159, (2,4-Dichloro-8-methyl-3-phenylquinolin-6-yl)(1-methyl-1H-imidazol-5-yl)(2-methylpyridin-4-yl)methanol•TFA] | 1.2 nM | 17 nM | 93% | 75 nM |  |  |
| Cc1cc(C(O)(c2ccnc(C(F)(F)F)c2)c2cncn2C)cc2c(Cl)c(-c3ccccc3)c(Cl)nc12 (centres unmarked) [Example 160, (2,4-Dichloro-8-methyl-3-phenylquinolin-6-yl)(1-methyl-1H-imidazol-5-yl)(2-(trifluoromethyl)pyridin-4-yl)methanol•TFA] | 6.1 nM | 120 nM | 97% | 690 nM |  |  |
| Cn1cncc1C(O)(c1ccc(Cl)cc1)c1cc2c(Cl)c(-c3ccccc3)c(Cl)nc2cc1F (centres unmarked) [Example 161, (4-Chlorophenyl)(2,4-dichloro-7-fluoro-3-phenylquinolin-6-yl)(1-methyl-1H-imidazol-5-yl)methanol•TFA] | 78 nM | 170 nM | 104% | 360 nM |  |  |
| Cn1cncc1C(O)(c1ccncc1)c1ccc2nc(C(F)(F)F)c(-c3ccccc3)c(C(F)(F)F)c2c1 (centres unmarked) [Example 164, (1-Methyl-1H-imidazol-5-yl)(3-phenyl-2,4-bis(trifluoromethyl)quinolin-6-yl)(pyridin-4-yl)methanol•TFA] | 1.2 nM | 18 nM | 98% | 26 nM |  |  |
| O=C(O)C(F)(F)F.OC(c1cccnc1)(c1cccc(Cl)c1)c1ccc2nc(C(F)(F)F)c(-c3ccccc3)c(C(F)(F)F)c2c1 (centres unmarked) [Example 165, (3-Chlorophenyl)(3-phenyl-2,4-bis(trifluoromethyl)quinolin-6-yl)(pyridin-3-yl)methanol•TFA] | 2.4 nM | 48 nM |  |  | 98% | 97 nM |
| [O-][n+]1cccc(C(O)(c2cccc(Cl)c2)c2ccc3nc(C(F)(F)F)c(-c4ccccc4)c(C(F)(F)F)c3c2)c1 (centres unmarked) [Example 166, 3-((3-Chlorophenyl)(hydroxy)(3-phenyl-2,4-bis(trifluoromethyl)quinolin-6-yl)methyl)pyridine 1-oxide•TFA] | 36 nM | 180 nM | 103% | 150 nM |  |  |
| OC(c1ccccc1)(c1cccnc1)c1ccc2nc(C(F)(F)F)c(-c3ccccc3)c(C(F)(F)F)c2c1 (centres unmarked) [Example 170, Phenyl(3-phenyl-2,4-bis(trifluoromethyl)quinolin-6-yl)(pyridin-3-yl)methanol] | 4.2 nM | 35 nM | 98% | 96 nM |  |  |
| OC(c1ccc(C(F)(F)F)cc1)(c1cccnc1)c1ccc2nc(Cl)c(-c3ccccc3)c(Cl)c2c1 (centres unmarked) [Example 171, (2,4-Dichloro-3-phenylquinolin-6-yl)(pyridin-3-yl)(4-(trifluoromethyl)phenyl)methanol•TFA] | 140 nM | 320 nM | 85% | 300 nM |  |  |
| Cn1nncc1C(O)(c1ccc2nc(C(F)(F)F)c(-c3ccccc3)c(C(F)(F)F)c2c1)c1cnnn1C [Example 182, Bis(1-methyl-1H-1,2,3-triazol-5-yl)(3-phenyl-2,4-bis(trifluoromethyl)quinolin-6-yl)methanol] | 1.5 nM |  | 94% | 7 nM |  |  |
| Cn1cncc1C(O)(c1ccc(Cl)cc1)c1ccc2nc(Cl)c(-c3cccc(Cl)c3)c(Cl)c2c1 (centres unmarked) [Example 187, (4-Chlorophenyl)(2,4-dichloro-3-(3-chlorophenyl)quinolin-6-yl)(1-methyl-1H-imidazol-5-yl)methanol] | 100 nM |  | 73% | > 6000 nM |  |  |
